{"source": "ChEMBL document CHEMBL1122718", "about": "“Benzylamines: synthesis and evaluation of antimycobacterial properties” (1984)", "type_in_all_cases": "functional", "key": {"Mycobacterium marinum": {"tested_on": "Mycobacterium marinum", "experiment": "Minimum inhibitory concentration (MIC) of compound against Mycobacterium marinum SN 1254"}, "[1]": {"tested_on": "Mycobacterium tuberculosis", "experiment": "Compound was evaluated for the synergistic effect in combination with capreomycin for the inhibition of Mycobacterium tuberculosis H 37 Ra, using middlebrook 7H9 medium (liquid)"}, "[2]": {"tested_on": "Mycobacterium tuberculosis", "experiment": "Compound was evaluated for the synergistic effect in combination with aminosalicylic acid for the inhibition of Mycobacterium tuberculosis H 37 Ra, using Lowenstein-Jensen medium (solid)"}, "[3]": {"tested_on": "Mycobacterium tuberculosis", "experiment": "Compound was evaluated for the synergistic effect in combination with cycloserine for the inhibition of Mycobacterium tuberculosis H 37 Ra, using middlebrook 7H9 medium (liquid)"}, "[4]": {"tested_on": "Mycobacterium tuberculosis", "experiment": "Compound was evaluated for the synergistic effect in combination with ethionamide for the inhibition of Mycobacterium tuberculosis H 37 Ra, using Lowenstein-Jensen medium (solid)"}, "[5]": {"tested_on": "Mycobacterium tuberculosis", "experiment": "Fractional inhibitory concentration (FIC) was determined for the compound in combination of Benzaldehyde thiosemicarbazone"}, "[6]": {"tested_on": "Mycobacterium tuberculosis", "experiment": "Fractional inhibitory concentration (FIC) was determined for the compound in combination of Aminosalicylic acid"}, "[7]": {"tested_on": "Mycobacterium tuberculosis", "experiment": "Compound was evaluated for the synergistic effect in combination with capreomycin for the inhibition of Mycobacterium tuberculosis H 37 Ra, using Lowenstein-Jensen medium (solid)"}, "[8]": {"tested_on": "Mycobacterium tuberculosis", "experiment": "Compound was evaluated for the synergistic effect in combination with dapsone for the inhibition of Mycobacterium tuberculosis H 37 Ra, using Lowenstein-Jensen medium (solid)"}, "[9]": {"tested_on": "Mycobacterium tuberculosis", "experiment": "Fractional inhibitory concentration (FIC) was determined for the compound in combination of Rifampicin"}, "[10]": {"tested_on": "Mycolicibacterium smegmatis", "experiment": "Minimum inhibitory concentration (MIC) of compound against Mycobacterium smegmatis ATCC 607"}, "[11]": {"tested_on": "Mycobacterium tuberculosis", "experiment": "Fractional inhibitory concentration (FIC) was determined for the compound in combination of Streptomycin sulfate"}, "[12]": {"tested_on": "Mycobacterium tuberculosis", "experiment": "Compound was evaluated for the synergistic effect in combination with tetracycline hydrochloride for the inhibition of Mycobacterium tuberculosis H 37 Ra, using Lowenstein-Jensen medium (solid)"}, "[13]": {"tested_on": "Mycobacterium tuberculosis", "experiment": "Compound was evaluated for the synergistic effect in combination with streptomycin sulfate for the inhibition of Mycobacterium tuberculosis H 37 Ra, using Lowenstein-Jensen medium (solid)"}, "[14]": {"tested_on": "Mycobacterium tuberculosis", "experiment": "Compound was evaluated for the synergistic effect in combination with benzaldehyde thiosemicarbazone for the inhibition of Mycobacterium tuberculosis H 37 Ra, using Lowenstein-Jensen medium (solid)"}, "Mycobacterium lufu": {"tested_on": "Mycobacterium lufu", "experiment": "Minimum inhibitory concentration (MIC) of compound against Mycobacterium lufu L 209"}, "[15]": {"tested_on": "Mycobacterium tuberculosis", "experiment": "Fractional inhibitory concentration (FIC) was determined for the compound in combination of Isoniazid"}, "[16]": {"tested_on": "Mycobacterium tuberculosis", "experiment": "Compound was evaluated for the synergistic effect in combination with streptomycin sulfate for the inhibition of Mycobacterium tuberculosis H 37 Ra, using middlebrook 7H9 medium (liquid)"}, "[17]": {"tested_on": "Mycobacterium tuberculosis", "experiment": "Compound was evaluated for the synergistic effect in combination with trimethoprim for the inhibition of Mycobacterium tuberculosis H 37 Ra, using Lowenstein-Jensen medium (solid)"}, "[18]": {"tested_on": "Mycobacterium tuberculosis", "experiment": "Compound was evaluated for the synergistic effect in combination with rifampicin for the inhibition of Mycobacterium tuberculosis H 37 Ra, using middlebrook 7H9 medium (liquid)"}, "[19]": {"tested_on": "Mycobacterium tuberculosis", "experiment": "Compound was evaluated for the synergistic effect in combination with ethionamide for the inhibition of Mycobacterium tuberculosis H 37 Ra, using middlebrook 7H9 medium (liquid)"}, "[20]": {"tested_on": "Mycobacterium tuberculosis", "experiment": "Compound was evaluated for the synergistic effect in combination with isoniazid for the inhibition of Mycobacterium tuberculosis H 37 Ra, using Lowenstein-Jensen medium (solid)"}, "[21]": {"tested_on": "Mycobacterium tuberculosis", "experiment": "Fractional inhibitory concentration (FIC) was determined for the compound in combination of trimethoprim"}, "[22]": {"tested_on": "Mycobacterium tuberculosis", "experiment": "Fractional inhibitory concentration (FIC) was determined for the compound in combination of Ethionamide"}, "[23]": {"tested_on": "Mycobacterium tuberculosis", "experiment": "Compound was evaluated for the synergistic effect in combination with isoniazid for the inhibition of Mycobacterium tuberculosis H 37 Ra, using middlebrook 7H9 medium (liquid)"}, "Mycobacterium avium": {"tested_on": "Mycobacterium avium", "experiment": "Minimum inhibitory concentration (MIC) of compound against Mycobacterium avium SN 304"}, "[24]": {"tested_on": "Mycobacterium tuberculosis", "experiment": "Compound was evaluated for the synergistic effect in combination with ethambutol for the inhibition of Mycobacterium tuberculosis H 37 Ra, using Lowenstein-Jensen medium (solid)"}, "[25]": {"tested_on": "Mycobacterium tuberculosis", "experiment": "Fractional inhibitory concentration (FIC) was determined for the compound in combination of Dapsone"}, "[26]": {"tested_on": "Mycobacterium tuberculosis", "experiment": "Compound was evaluated for the synergistic effect in combination with ethambutol for the inhibition of Mycobacterium tuberculosis H 37 Ra, using middlebrook 7H9 medium (liquid)"}, "[27]": {"tested_on": "Mycobacterium tuberculosis", "experiment": "Minimum inhibitory concentration (MIC) of compound against Mycobacterium tuberculosis H 37 Rv"}, "[28]": {"tested_on": "Mycobacterium tuberculosis", "experiment": "Compound was evaluated for the synergistic effect in combination with dapsone for the inhibition of Mycobacterium tuberculosis H 37 Ra, using middlebrook 7H9 medium (liquid)"}, "[29]": {"tested_on": "Mycobacterium tuberculosis", "experiment": "Minimum inhibitory concentration (MIC) against Mycobacterium tuberculosis H 37 Ra"}, "[30]": {"tested_on": "Mycobacterium tuberculosis", "experiment": "Fractional inhibitory concentration (FIC) was determined for the compound in combination of Cycloserine"}, "[31]": {"tested_on": "Mycobacterium tuberculosis", "experiment": "Compound was evaluated for the synergistic effect in combination with benzaldehyde thiosemicarbazone for the inhibition of Mycobacterium tuberculosis H 37 Ra, using middlebrook 7H9 medium (liquid)"}, "[32]": {"tested_on": "Mycobacterium tuberculosis", "experiment": "Fractional inhibitory concentration (FIC) was determined for the compound in combination of Tetracycline hydrochloride"}, "[33]": {"tested_on": "Mycobacterium tuberculosis", "experiment": "Compound was evaluated for the synergistic effect in combination with tetracycline hydrochloride for the inhibition of Mycobacterium tuberculosis H 37 Ra, using middlebrook 7H9 medium (liquid)"}, "[34]": {"tested_on": "Mycobacterium tuberculosis", "experiment": "Fractional inhibitory concentration (FIC) was determined for the compound in combination of Ethambutol"}, "[35]": {"tested_on": "Mycobacterium tuberculosis", "experiment": "Compound was evaluated for the synergistic effect in combination with cycloserine for the inhibition of Mycobacterium tuberculosis H 37 Ra, using Lowenstein-Jensen medium (solid)"}, "[36]": {"tested_on": "Mycobacterium tuberculosis", "experiment": "Compound was evaluated for the synergistic effect in combination with trimethoprim for the inhibition of Mycobacterium tuberculosis H 37 Ra, using middlebrook 7H9 medium (liquid)"}, "[37]": {"tested_on": "Mycobacterium tuberculosis", "experiment": "Compound was evaluated for the synergistic effect in combination with rifampicin for the inhibition of Mycobacterium tuberculosis H 37 Ra, using Lowenstein-Jensen medium (solid)"}, "[38]": {"tested_on": "Mycobacterium tuberculosis", "experiment": "Fractional inhibitory concentration (FIC) was determined for the compound in combination of Capreomycin"}, "[39]": {"tested_on": "Mycobacterium tuberculosis", "experiment": "Compound was evaluated for the synergistic effect in combination with aminosalicylic acid for the inhibition of Mycobacterium tuberculosis H 37 Ra, using middlebrook 7H9 medium (liquid)"}}}
{"smiles": "CNCc1cc(Cl)cc(Cl)c1.Cl", "values": [{"measurement": "MIC", "setting": "Mycobacterium marinum", "result": 4, "unit": "µg/mL"}, {"measurement": "MIC", "setting": "[1]", "result": 0.5, "unit": "µg/mL"}, {"measurement": "MIC", "setting": "[2]", "result": 0.025, "unit": "µg/mL"}, {"measurement": "MIC", "setting": "[3]", "result": 32, "unit": "µg/mL"}, {"measurement": "MIC", "setting": "[4]", "result": 6.4, "unit": "µg/mL"}, {"measurement": "FIC index", "setting": "[5]", "result": 0.25}, {"measurement": "FIC index", "setting": "[6]", "result": 0.0625}, {"measurement": "MIC", "setting": "[7]", "result": 4.47, "unit": "µg/mL"}, {"measurement": "MIC", "setting": "[8]", "result": 5.12, "unit": "µg/mL"}, {"measurement": "FIC index", "setting": "[9]", "result": 0.5}, {"measurement": "MIC", "setting": "[10]", "result": 32, "unit": "µg/mL"}, {"measurement": "FIC index", "setting": "[11]", "result": 0.125}, {"measurement": "MIC", "setting": "[12]", "result": 7.68, "unit": "µg/mL"}, {"measurement": "MIC", "setting": "[13]", "result": 7.68, "unit": "µg/mL"}, {"measurement": "MIC", "setting": "[14]", "result": 0.179, "unit": "µg/mL"}, {"measurement": "MIC", "setting": "Mycobacterium lufu", "result": 4, "unit": "µg/mL"}, {"measurement": "FIC index", "setting": "[15]", "result": 1}, {"measurement": "MIC", "setting": "[16]", "result": 0.1, "unit": "µg/mL"}, {"measurement": "MIC", "setting": "[17]", "result": 179, "unit": "µg/mL"}, {"measurement": "MIC", "setting": "[18]", "result": 0.01, "unit": "µg/mL"}, {"measurement": "MIC", "setting": "[19]", "result": 1, "unit": "µg/mL"}, {"measurement": "MIC", "setting": "[20]", "result": 0.03, "unit": "µg/mL"}, {"measurement": "FIC index", "setting": "[21]", "result": 0.5}, {"measurement": "FIC index", "setting": "[22]", "result": 1}, {"measurement": "MIC", "setting": "[23]", "result": 0.1, "unit": "µg/mL"}, {"measurement": "MIC", "setting": "Mycobacterium avium", "result": 4, "unit": "µg/mL"}, {"measurement": "MIC", "setting": "[24]", "result": 1, "unit": "µg/mL"}, {"measurement": "FIC index", "setting": "[25]", "result": 0.031}, {"measurement": "MIC", "setting": "[26]", "result": 5, "unit": "µg/mL"}, {"measurement": "MIC", "setting": "[27]", "result": 3, "unit": "µg/mL"}, {"measurement": "MIC", "setting": "[28]", "result": 32, "unit": "µg/mL"}, {"measurement": "MIC", "setting": "[29]", "result": 10.2, "unit": "µg/mL"}, {"measurement": "FIC index", "setting": "[30]", "result": 1}, {"measurement": "MIC", "setting": "[31]", "result": 0.1, "unit": "µg/mL"}, {"measurement": "FIC index", "setting": "[32]", "result": 1}, {"measurement": "MIC", "setting": "[33]", "result": 2, "unit": "µg/mL"}, {"measurement": "FIC index", "setting": "[34]", "result": 1}, {"measurement": "MIC", "setting": "[35]", "result": 25.6, "unit": "µg/mL"}, {"measurement": "MIC", "setting": "[36]", "result": 256, "unit": "µg/mL"}, {"measurement": "MIC", "setting": "[37]", "result": 0.512, "unit": "µg/mL"}, {"measurement": "FIC index", "setting": "[38]", "result": 1}, {"measurement": "MIC", "setting": "[39]", "result": 0.05, "unit": "µg/mL"}]}
